The test deals with Cut2 (cutinase 2) (Pyricularia oryzae, UniProt G4MZV6). The following applies: 12.5 nM Cut2, 0-8 mM substrate; assay buffer 25 mM NaH2PO4, pH 7.2.
Cut2 (cutinase 2), sequence (G4MZV6 19-214 limits assumed): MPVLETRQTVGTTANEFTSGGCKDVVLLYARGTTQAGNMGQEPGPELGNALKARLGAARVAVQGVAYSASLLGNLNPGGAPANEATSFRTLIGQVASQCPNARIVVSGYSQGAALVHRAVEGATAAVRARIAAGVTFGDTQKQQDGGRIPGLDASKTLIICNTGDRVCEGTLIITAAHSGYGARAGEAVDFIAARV

Take `CCCC(=O)Oc1ccc([N+](=O)[O-])cc1` [p-nitrophenyl butyrate]: the kcat/Km entry is “We determined kcat/Km for our recombinant Cut2 with p-nitrophenylbutyrate as substrate”.

Values taken from PMC4855151 (Scientific Reports, 2016).
